Data: BigSolDB 2.1

CCS(=O)(=O)O.COC(=O)c1ccc2c(C(=Nc3ccc(N(C)C(=O)CN4CCN(C)CC4)cc3)c3ccccc3)c(O)[nH]c2c1
solubility (mole fraction)
Conditions | in DMAc | in DMF | in acetone | in acetonitrile | in dichloromethane | in ethanol | in isopropanol | in methanol | in n-butanol | in n-propanol
278.15 K | 0.000745 | 0.000994 | 3.21e-06 | 9.42e-06 | 0.000125 | 0.00015 | 1.43e-05 | 0.00126 | 1.21e-05 | 4.29e-05
283.15 K | 0.000878 | 0.00129 | 4.13e-06 | 1.42e-05 | 0.000148 | 0.000179 | 1.93e-05 | 0.00149 | 1.44e-05 | 6.92e-05
288.15 K | 0.0011 | 0.00145 | 4.97e-06 | 1.75e-05 | 0.000161 | 0.000214 | 2.57e-05 | 0.00169 | 1.82e-05 | 8.1e-05
293.15 K | 0.00129 | 0.00165 | 5.92e-06 | 2.17e-05 | 0.000175 | 0.000253 | 3.39e-05 | 0.00203 | 2.33e-05 | 0.000103
298.15 K | 0.00156 | 0.00182 | 6.97e-06 | 2.89e-05 | 0.000199 | 0.000298 | 4.44e-05 | 0.00238 | 2.7e-05 | 0.000131
303.15 K | 0.00186 | 0.00206 | 8.32e-06 | 3.83e-05 | 0.00022 | 0.00035 | 5.75e-05 | 0.00281 | 3.54e-05 | 0.000156
308.15 K | 0.00214 | 0.00239 | 9.74e-06 | 4.28e-05 | 0.00025 | 0.0004 | 7.4e-05 | 0.00341 | 4.5e-05 | 0.000207
313.15 K | 0.00258 | 0.00271 | 1.08e-05 | 5.13e-05 | – | 0.000473 | 0.0001 | 0.00413 | 5.17e-05 | 0.000241
318.15 K | 0.00285 | 0.00304 | 1.3e-05 | 6.02e-05 | – | 0.000546 | 0.000118 | 0.00467 | 7.26e-05 | 0.000317
323.15 K | 0.00316 | 0.00336 | 1.62e-05 | 6.85e-05 | – | 0.000627 | 0.00015 | 0.00524 | 8.92e-05 | 0.000384
